Assay [1] in a line: Antioxidant behavior of C60 fullerene compared with vitamin C (reported). Particulars: 60 atoms for C60 fullerene versus six for vitamin C. The text has this:
Antioxidant behavior has been reported in C60 fullerene as being 172 times that of vitamin C or ascorbic acid.
The reported factor of 172 times greater than vitamin C can be partially explained by C60 fullerene having 60 carbons over which electron delocalization can proceed versus only six atoms of a mixture of half and half carbon and oxygen for vitamin C. If it were just numbers of atoms over which electron delocalization proceeds in its effectiveness in stabilizing unpaired electrons arising from ROS, one would expect that the potency of C60 fullerene would be only ten times that of vitamin C. Phenolics involve only seven atoms for stabilizing unpaired electrons of six carbons from the benzene ring plus the phenolic oxygen atom and thus C60 fullerene would then be expected to be a bit less than ten times that of phenolic antioxidants.
The reported 172 factor superiority of C60 fullerene in antioxidant behavior over vitamin C or ascorbic acid cannot be accounted for on the basis of individual atoms involved in the delocalization network alone. […] So, there must be something exceptional about the electron delocalization involving 3D fullerene concentric shells over 2D ascorbic acid or phenolics. There are several explanations for the superiority of 3D fullerene systems especially of the fullerene CNO systems: […]

The subject of a further assay is rat. The note with it: cited from earlier work.

As to `c12c3c4c5c1c1c6c7c2c2c8c3c3c9c4c4c%10c5c5c1c1c6c6c%11c7c2c2c7c8c3c3c8c9c4c4c9c%10c5c5c1c1c6c6c%11c2c2c7c3c3c8c4c4c9c5c1c1c6c2c3c41` [C60 fullerene], the “superiority in antioxidant behavior over ascorbic acid, taking into account the number of atoms in the electron delocalization network” value in assay [1] is 17.2 factor. Further, in the assay with rat, the life expectancy result is on record as “nearly doubling of life expectancy”.

These data come from patent US20250223171A1, “ALLOTROPE OF CARBON HAVING INCREASED ELECTRON DELOCALIZATION” (Structured Nano Carbon LLC, priority 2017, published 2025).
